In publication PMC2810346 (Journal of the American Chemical Society, 2010):
Peptide text beside a SMILES is read from it.

Legend:
[1] = tested on: HIF-1α induced transcription of VEGF gene in HeLa cells; conditions: ref [18]; cited from earlier work
[2] = molecular target: GST-p300 (p300 CH1 domain) (Homo sapiens, UniProt Q09472); experiment: Isothermal titration microcalorimetry; format: binding; conditions: for affinity for GST-p300 (in words): isothermal titration microcalorimetry
[3] = format: physicochemical; conditions: 10% trifluoroethanol in phosphate buffered saline (pH 6.3); for % helicity: circular dichroism, estimated from mean residue ellipticity at 222 nm
[4] = tested on: HIF-1α induced transcription of VEGF gene in HeLa cells; format: cell-based; conditions: qRT-PCR, hypoxic conditions (DFO), 12 and 24 h incubation
[5] = tested on: GST-p300; CH1 domains of CBP (or p300); experiment: CD spectrum of GST-p300 / CH1 structural change on addition of compound; conditions: circular dichroism of GST-p300 with HBS 2 added
[6] = tested on: cell density and population doubling; experiment: Cell viability assay; format: cell-based; conditions: monitored up to 72 h, 1 μM peptide, 200 nM chetomin

Sequence of GST-p300 (p300 CH1 domain) (Q09472 331-417 limits assumed): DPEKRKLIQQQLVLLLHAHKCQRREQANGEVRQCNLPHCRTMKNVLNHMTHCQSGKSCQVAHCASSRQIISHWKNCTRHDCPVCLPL

## CN1C(=O)[C@]2(Cc3cn([C@]45C[C@@]67SS[C@@](CO)(C(=O)N6[C@H]4Nc4ccccc45)N(C)C7=O)c4ccccc34)SS[C@@]1(CO)C(=O)N2C [chetomin]
[1]
  inhibition of VEGF transcription, literature (in words): known potent inhibitor of VEGF transcription

## C[C@H](NC(=O)[C@H](CC(N)=O)NC(=O)[C@H](Cc1ccc(O)cc1)NC(=O)[C@H](CCC(=O)O)NC(=O)[C@H](CS)NC(=O)[C@H](CC(=O)O)NC(=O)[C@H](C)N1C/C=C/CCC(=O)N[C@@H]([C@@H](C)O)C(=O)N[C@@H](C)C1=O)C(N)=O [compound 1]
[2]
  affinity for GST-p300 (in words): submicromolar affinity
[3]
  % helicity: 40%
[4]
  inhibition of VEGF transcription (in words): did not show measurable inhibition of transcription

## C[C@H](NC(=O)[C@H](CC(N)=O)NC(=O)[C@H](Cc1ccc(O)cc1)NC(=O)[C@H](CCC(=O)O)NC(=O)[C@H](CS)NC(=O)[C@H](CC(=O)O)NC(=O)[C@H](C)N1C/C=C/CCC(=O)N[C@@H]([C@@H](C)O)C(=O)N[C@@H](C)C1=O)C(=O)N[C@@H](CCCNC(=N)N)C(N)=O [compound 2]
[5]
  effect on CD spectrum of GST-p300 (in words): does not alter the CD spectrum of GST-p300
[2]
  affinity for GST-p300 (in words): does not have a detrimental effect on the ability of HBS 2 to bind GST-p300
[6]
  cytotoxicity (in words): does not display significant cytotoxicity
[3]; listed as HBS 2
  solution conformation by CD (in words): more helical than HBS 1
[3]
  % helicity: 53%

## CC(=O)N[C@H](C(=O)N[C@@H](C)C(=O)N[C@@H](C)C(=O)N[C@@H](CC(=O)O)C(=O)N[C@@H](CS)C(=O)N[C@@H](CCC(=O)O)C(=O)N[C@@H](Cc1ccc(O)cc1)C(=O)N[C@@H](CC(N)=O)C(=O)N[C@@H](C)C(=O)N[C@@H](CCCNC(=N)N)C(=O)O)[C@@H](C)O [compound 4] (Ac-TAADCEYNAR-OH)
[2]
  Kd: 825 ± 50 nM
